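In this assay, cells in 96-well plates receive the compound at five concentrations for 48 hours. Endpoints are linearly interpolated between the surrounding concentrations. TGI denotes the concentration required for complete inhibition of growth.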 Where a SMILES comes first, the peptide text is derived from it. [ ]: non-standard residue; d: D form. The star is where a group is joined. ξ: configuration not given here. ξD = NC(CC(=O)O)C(=O)O; Boc = CC(C)(C)OC(=O)*; Aib = CC(C)(N)C(=O)O; OBn = c1ccc(CO*)cc1
Key:
Assay in all cases: NCI tumour cell line growth inhibition, 48 h
ACHN renal = system: ACHN renal
EKVX NSCLC = system: EKVX NSCLC
HOP-62 NSCLC = system: HOP-62 NSCLC
HOP-92 NSCLC = system: HOP-92 NSCLC
KM12 colon = system: KM12 colon
MDA-N = system: MDA-N
NCI-H23 lung = system: NCI-H23 lung
OVCAR-4 ovarian = system: OVCAR-4 ovarian
OVCAR-8 ovarian = system: OVCAR-8 ovarian
RPMI-8226 leukemia = system: RPMI-8226 leukemia
SNB-19 CNS = system: SNB-19 CNS
SR leukemia = system: SR leukemia
SW-620 colon = system: SW-620 colon
UO-31 renal = system: UO-31 renal
HCC-2998 colon = system: HCC-2998 colon
RXF 393 renal = system: RXF 393 renal
MALME-3M melanoma = system: MALME-3M melanoma

Compound	TGI (ACHN renal) [µM]	TGI (EKVX NSCLC) [µM]	TGI (HOP-62 NSCLC) [µM]	TGI (HOP-92 NSCLC) [µM]	TGI (KM12 colon) [µM]	TGI (MDA-N) [µM]	TGI (NCI-H23 lung) [µM]	TGI (OVCAR-4 ovarian) [µM]	TGI (OVCAR-8 ovarian) [µM]	TGI (RPMI-8226 leukemia) [µM]	TGI (SNB-19 CNS) [µM]	TGI (SR leukemia) [µM]	TGI (SW-620 colon) [µM]	TGI (UO-31 renal) [µM]	TGI (HCC-2998 colon) [µM]	TGI (RXF 393 renal) [µM]	TGI (MALME-3M melanoma) [µM]
N#CC(O)CCOCc1ccccc1 (configuration not stated)	> 100	> 100	> 100	> 100	> 100	> 100	> 100	> 100	> 100	> 100	> 100	> 100	> 100	> 100			
Cn1c(=O)c2c(nc3n2CCCC(=O)N3CCCCl)n(C)c1=O	> 100	> 100	> 100	> 100	> 100	> 100	> 100	> 100	> 100	> 100	> 100	> 100	> 100	> 100	> 100	> 100	
CC(NNC(=O)c1ccncc1)c1ccccc1 (configuration not stated)	> 100	> 100	> 100	> 100	> 100	> 100	> 100	> 100	> 100	> 100	> 100	> 100	> 100	> 100	> 100	> 100	> 100
Oc1ccc(Br)cc1C=Nc1c(NC2CCCCC2)oc2ccc(Br)cc12	> 100	> 100	> 100		> 100	> 100	56	> 100	> 100	> 100	> 100	> 100	> 100	> 100	> 100	27.1	> 100
NCCCN(CCCCN(CCCN)Cc1ccccc1)Cc1ccccc1	> 100	96.5			> 100	33.1	> 100	> 100	> 100	> 100	22.5		> 100	> 100	22.7	> 100	> 100
CN(C)c1ccc(N=C2N=C(Nc3ccccc3)C(=Nc3ccccc3)S2)cc1	> 100	> 100	> 100	> 100	> 100	> 100	> 100	> 100	> 100		> 100	> 100	> 100		> 100	> 100	> 100
COC(=O)CN(CC(=O)NCCNC(=O)OC(C)(C)C)C1CCCCC1N(CC(=O)OC)CC(=O)OC (configuration not stated)	> 100	> 100	> 100		> 100	> 100	> 100		> 100	> 100	> 100	> 100	> 100	> 100	> 100		> 100
C/C(O)=C(/C=N/C(=S)Nc1ccccc1)C(=O)Nc1ccccc1C	> 100	> 100	> 100	> 100	> 100	> 100	> 100	> 100	> 100	> 100	> 100	> 100	> 100	> 100	> 100	> 100	> 100
CC(C)C1=Cc2ccc3c(c2C(=O)C1=O)CCCC3	7.13	19.2	42.1	2.27	32.4	19.3	20.3	3.16	13.4	6.6	37.5	2.77	14	6.74	30.9	7.82	5.78
O=S(=O)(CC(Cl)c1ccccc1)c1nc2ccccc2s1 (configuration not stated)	29.1	35.4	41.1	9.38	32	18.1	25.5	51.1	23.8	9.65	32.3	4.55	20.7	29.4	31.8	42	23.6
CC(C)CC(=O)CC(C)[C@]1(CCCOCc2ccccc2)C(=O)N2CCC3(C[C@@]24CCC[C@H]41)OCCO3 (some centres not stated)		> 10	> 10	> 10	> 10	> 10	> 10	> 10	> 10	> 10	> 10	> 10	> 10	> 10	> 10		
Cc1nc2ccc(Cl)cc2c2c1CCN2c1ccc(F)cc1	> 100	> 100	> 100		> 100	> 100	> 100	> 100	> 100	65.1	> 100	73.8	> 100	> 100	> 100	93.3	82
C/C(=C/CC[C@](C)(OC1OC(CO)C(O)C(O)C1O)[C@H]1CC[C@]2(C)[C@@H]1CC[C@@H]1[C@@]3(C)CC[C@H](O)C(C)(C)[C@@H]3C[C@H](O)[C@]12CO)CO (some centres not stated)	> 100	> 100	> 100	> 100	> 100	> 100	> 100	> 100	> 100	> 100	> 100	> 100	> 100	> 100		> 100	> 100
CC(C)(C)OC(=O)NC(CC(=O)OCc1ccccc1)C(=O)NC(C)(C)C(N)=O (configuration not stated) (Boc-[ξD](OBn)-[Aib]-NH2)	> 100	> 100	> 100	> 100	> 100	> 100	> 100	> 100	> 100	> 100	> 100		> 100	> 100		> 100	> 100
O=C(C[C@@H]1CCCN2CCCC[C@H]12)N1c2ccccc2Sc2ccc(Cl)cc21	27.2	33.8	26		27.6	30.9	29.1		37.2	54.8	31.1	53	26.8	25.9		29	31.2
N#Cc1ccc(C2ON=C(c3ccccc3)N2C23CC4CC(CC(C4)C2)C3)cc1 (configuration not stated)	> 10	> 10	> 10	> 10	> 10	> 10	> 10	> 10	> 10	> 10	> 10	> 10	> 10		> 10	> 10	> 10
COc1c(Sc2c(SCSc3cnc4ccccc4c3Sc3cnc4ccccc4c3OC)cnc3ccccc23)cnc2ccccc12	> 100	> 100	> 100	84	> 100	> 100	> 100	> 100	> 100	> 100	77.3	56.7	> 100	> 100	> 100		
O=C1NC(=O)C(CCC(=O)c2cccc3ccccc23)C(=O)N1	> 100			> 100	> 100	> 100	> 100	> 100	> 100	> 100	> 100	> 100	> 100	> 100	> 100	> 100	
COc1cc(/C=C2\CCC(C)C3=C2N=c2s/c(=C/c4ccc(Cl)cc4)c(=O)n2C3c2cc(OC)c(OC)c(OC)c2)cc(OC)c1OC (configuration not stated)	> 100	> 100	> 100	> 100	> 100	> 100		> 100	> 100	> 100	> 100	> 100	> 100	> 100		> 100	
Cn1c(-c2ccccc2)cc(-c2ccc3c(c2)OCO3)c1-c1ccsc1	> 100	> 100	> 100	> 100	> 100	> 100	> 100	> 100	> 100	> 100	> 100	> 100	> 100	> 100	> 100	> 100	
COc1cccc(/C=C2\CCC(CN(C)C)C2=O)c1 (configuration not stated)	25.5	42.1	21	33.9	15.1	16.8	27.3	22.2	9.55		29.5	8.43	8.52	20.1	24.4	12.3	14
COc1cc(C2c3cc4c(cc3OC(NNC(N)=S)C2C)OCO4)cc(OC)c1OC (configuration not stated)	> 100	> 100	> 100	7.9	> 35.6	> 100		> 100	> 55.1	0.847	> 100	1.42	> 100	60.1	18.7		> 100
COc1ccccc1NC1Oc2cc3c(cc2C(c2cc(OC)c(OC)c(OC)c2)C1C)OCO3 (configuration not stated)	> 100	> 100	> 51.1	> 22.8	29.4	1.82	> 82.1	> 78.5	> 64.2	21	> 100		> 100	43.8	7.93	7.62	9.43
COC(=O)C1(Cc2ccccc2)Cc2ccccc2C1O (configuration not stated)	> 100	> 100	> 100		> 100	> 100	> 100	> 100	> 100	> 100		> 100	> 100	> 100	> 100	> 100	> 100
Cc1ccc(S(=O)(=O)C2=Cc3ccccc3C2(O)c2ccccc2)cc1 (configuration not stated)	> 100	76	> 10		37.6	48.2	> 100		81.2	44.7	> 100	92	> 100		91.3		
Cc1nc(C(N)=S)sc1C(=O)CC(=O)C(=O)Nc1ccc(Br)cc1	> 100	> 100	> 100	> 100	> 100	> 100	> 100	> 100	> 100	> 100			> 100	> 100		> 100	> 100
C/C(=N\O)c1ccc(OCc2cc(C(F)(F)F)cc(C(F)(F)F)c2)cc1	> 100	> 100	> 100	> 100	43.9	> 100	> 100	> 100	> 100		> 100	> 100	> 100	> 100	98.4	72.4	> 100
Cc1ccc(S(=O)(=O)N(CCN)c2cc3c4c(c2)Oc2cccc5c2C4c2c(cccc2O3)O5)cc1	> 100	29	28.7	70.8	> 100	67.6	> 100		23.2	> 100	> 100	> 100	> 100	> 100	> 100		22.2
CCOC(=O)C1CCCc2sc(N)c(C#N)c21 (configuration not stated)	> 100	> 100	> 100	> 100	> 100	> 100	> 100		> 100	> 100	> 100	> 100	> 100	> 100	> 100	> 100	> 100
